Columns and labels:
[1] = system: Mouse adipocytes (3T3-L1); assay: Adipocyte differentiation, oil-red O staining; type: cell-based; details: 3T3-L1 co-treated with DMI, 8 days, FIG. 6
Description: Mouse adipocytes (3T3-L1) were co-treated with DMI (5 μM of dexamethasone, 0.5 mM of 3-isobutyl-1-methylxanthine, and 0.1724 mM of insulin) and different chemicals. After being cultured for 8 days, the cell media was removed and oil-red O staining was used to analyze these adipocytes' differentiation.

[2] = system: Male C57BL/6 mice on high-fat diet; assay: Intraperitoneal glucose tolerance testing in mice; type: in vivo, mouse; details: mice fasted 16 hours, 2 g/kg glucose, 0-120 min; FIG. 12
Description: (§1) Male C57BL/6 mice (8 weeks old) were purchased from the National Laboratory Animal Center. Mice were divided into three groups (n=6 each group): chow diet; high-fat diet (HFD, 60% ResearchDiet, D12492); and HFD gavage with corylin at 100 mg/kg. To compare the metabolic effects of corylin, parameters such as body weights, liver weights and white adipocytes tissue (WAT) weights from epididymal, inguinal and axilla subcutaneous were measured at the end of the treatment. […] For intraperitoneal glucose tolerance testing, mice were fasted for 16 hours and then injected with 2 g/kg of glucose solution. For insulin tolerance testing, mice were fasted for 3 hours and then injected with 1.2 U/kg insulin. Serum blood glucose levels were measured at 0, 15, 30, 60, 90, and 120 min after glucose and insulin injection.

[3] = system: Male C57BL/6 mice on high-fat diet; assay: Insulin tolerance testing in mice; type: in vivo, mouse; details: mice fasted 3 hours, 1.2 U/kg insulin, 0-120 min; FIG. 13
Description: as §1

[4] = system: S6K phosphorylation caused by insulin; assay: Insulin-induced S6K phosphorylation by Western blotting; type: cell-based; details: human osteosarcoma cells, 400 nM insulin, 10 minutes; FIG. 7
Description: High concentration insulin can cause phosphorylation and thus cells are resistant to insulin, which is one cause for type II diabetes. In order to mimic type II diabetes, human osteosarcoma cells were cultured in 400 nM of insulin and different chemicals for 10 minutes. After which, Western blotting assay was used to analyze the protein in these cells.

[5] = system: ICAM-1 expression; assay: Lipopolysaccharide-induced ICAM-1 expression by Western blotting in HASMC; type: cell-based, human; details: corylin 24 hours then lipopolysaccharide 24 hours, FIG. 8
Description: Lipopolysaccharide can induce immune response on blood vessels. During immune response, blood vessels can also overexpress ICAM-1, which is one cause of cardiovascular disease. To mimic this disease, human aortic smooth muscle cells (HASMC) were treated with corylin in different concentrations and then cultured for 24 hours. After these cells were treated with lipopolysaccharide for 24 hours, the protein in these cells was extracted and analyzed by Western blotting assay.

[6] = system: S6K phosphorylation; assay: S6K phosphorylation by Western blotting in U2OS cells; type: cell-based, human; details: 8 hours
Description: Human osteosarcoma (U2OS) cells were treated with different chemicals in different concentrations. After the cells were cultured for 8 hours, the protein therein was extracted. Finally, Western blotting assay was used to analyze the extracted protein. […] Moreover, human osteosarcoma cells were pre-treated with mammalian SIRT1 inhibitor EX-527 for 1 hour. Afterwards, those cells were treated with 100 μM corylin and cultured for 8 hours. Finally, Western blotting assay was used to analyze the protein extracted from those cells.

[7] = system: Male C57BL/6 mice on high-fat diet; assay: High-fat diet mice: body, liver and white adipocytes tissue weights; type: in vivo, mouse; details: HFD mice, gavage 100 mg/kg, end of treatment
Description: Male C57BL/6 mice (8 weeks old) were purchased from the National Laboratory Animal Center. Mice were divided into three groups (n=6 each group): chow diet; high-fat diet (HFD, 60% ResearchDiet, D12492); and HFD gavage with corylin at 100 mg/kg. To compare the metabolic effects of corylin, parameters such as body weights, liver weights and white adipocytes tissue (WAT) weights from epididymal, inguinal and axilla subcutaneous were measured at the end of the treatment.

[8] = system: human umbilical vein endothelial cells (HUVEC); assay: SA-βgal cellular aging assay in HUVEC; type: cell-based; details: corylin in different concentrations, successive generations, FIG. 3
Description: In addition, human umbilical vein endothelial cells (HUVEC) were treated with corylin in different concentrations, and the cells at this moment were called first generation cells. Second generation cells grew by culturing the first generation cells for 2-3 days, and then the second generation cells were treated with corylin in different concentrations. Third to Nth generation cells grew by repeating the culturing process. During each culture process, SA-βgal assay was used to analyze the responding generation cells. The more SA-βgal positive cells the cultured cells contained, the older the cultured cells were.

[9] = system: yeast cells; assay: Replicative life span of yeast cells (passage number); type: cell-based; details: YEPD media, 30° C.; FIG. 2
Description: A yeast colony was selected and cultured in a YEPD culture media. When the OD value of the media was at 0.6-0.8, 20 μl of the media containing different chemicals was added to a YEPD solid media, and then 20-30 yeast cells were selected using a tetrad dissection microscope manipulation system. The selected yeast cells were cultured at 30° C. for 3-5 hours to divide into first generation yeast cells. Afterwards, the first generation yeast cells were cultured at 30° C. for 3-5 hours to divide into second generation yeast cells. The culturing step was repeated until final generation yeast cells which cannot divide anymore existed. Finally, the yeast cells' passage number was counted according to the total division number.

Compound | inhibition of adipocytes' differentiation [1] | intraperitoneal glucose tolerance (serum blood glucose) [2] | insulin tolerance (serum blood glucose) [3] | S6K phosphorylation caused by insulin [4] | ICAM-1 expression caused by lipopolysaccharide [5] | interference of SIRT1 inhibitor EX-527 with corylin's effect on S6K phosphorylation ([6]; U2OS cells pre-treated with EX-527 for 1 hour, then 100 μM corylin, FIG. 5) | S6K phosphorylation ([6]; U2OS cells, different concentrations, FIG. 4) | body weight ([7]; FIG. 9) | liver weight ([7]; FIG. 10) | cells' aging (SA-βgal positive cells) [8] | yeast cells' passage number (replicative life span) [9]
Oc1ccc(C=Cc2cc(O)cc(O)c2)cc1 [resveratrol, reference compound] | inhibition of adipocytes' differentiation | – | – | – | – | – | – | – | – | – | –
corylin | more obvious than that caused by resveratrol | can lower intraperitoneal glucose tolerance | can lower | can suppress such phosphorylation caused by insulin | can inhibit ICAM-1 expression caused by lipopolysaccharide | cannot interfere with the S6K phosphorylation caused by corylin | can suppress S6K phosphorylation in dose-dependent manner | has an effect on the reduction of body weight | has an effect on the reduction of | can inhibit the cells' aging in dose-dependent manner | can increase yeast cells' passage number

— patent publication US9795588B2, “Mammalian TOR inhibitor” (Chang Gung University, priority 2016, dated 2017)
